Patent publication US12496298B2, “Natural killer cells” (Imperial College Innovations Limited, priority 2017, dated 2025)

Test system: Human CD34+ cells
Experiment: In vitro development of human NK cells (hCD56+ hCD45+) from CD34+ umbilical cord blood progenitor cells
Assay type: cell-based
Method: FIG. 9: Human CD34^+ cells were cultured with the addition of 5 μM SR8278 at Day 4. At Day 14 and 16, percentage of hCD56^+ hCD45^+ (markers for human NK cells) cells was quantified using flow cytometry. (A) Graph showing percentage of hCD56^+ hCD45^+ cells compared to the ‘No drug’ control in different conditions. (B) Flow cytometry gating strategy for identification of human NK cells. (C) Representative flow cytometry results with percentage of NK cells shown. Results were averaged from one experiments with six repeats each and the error bars represent the mean+SD.
The hypothesis that SR8278 increases NK cells production would not have any potential therapeutic value if it was not also true for human NK cell production. Therefore, the effect of SR8278 on human NK cell production from human HPCs was examined. Human HPCs were obtained as the CD34^+ population purified from umbilical cord blood from collaborators at the Anthony Nolan Research Institute, London. Human NK cell development goes through a similar developmental pathway to mouse NK cell development. By contrast with mouse HPC culture, human CD34^+ cells were cultured straight onto EL08-1D2 stromal cells in the presence of IL-3, IL-7, FIt3L, SCF and IL-15 cytokines for 14 and 16 days before harvesting and analysis by flow cytometry. To try to optimise human NK cell production, 5 or 10 μM SR8278 were added on either day 2, 4 or 6 of the culture.
OP9-GFP stromal cells were cultured in Iscove's Modified Dulbecco's Media (IMDM) (Sigma Aldrich) supplemented with 20% Fetal Bovine Serum (FBS), and Penicillin/[…] (P/S). For experiments done on 96-well plates, OP9 stromal cells were plated at the concentration of 2000 cells/well and incubated at 37° C., 5% CO2 for 1 day before the addition of HPCs. For experiments done on 24-well plates, OP9 stromal cells were plated at the concentration of 4000 cells/well and were incubated at 37° C. 5% CO2 for 2 days prior to addition of HPCs. EL08.1D2 stromal cells were cultured in Minimum Essential Medium Eagle—Alpha Modification (Alpha-MEM) supplemented with 50% Myelocult M5300 (Stem Cell Technologies), 7.5% FBS, 50 μM β-Mercaptoethanol, 1 μM Hydrocortisone and 1% P/S (Sigma Aldrich). For human CD34^+ progenitor cell experiments, EL08.1D2 were irradiated at 3000 rads/30 Gy and plated in 96-well EmbryoMax Gelatin (Millipore)-coated plates at the concentration of 20,000 cells/well. There were cultured at 32° C., 5% CO2 overnight, before CD34^+ cells were transferred onto them.
CD34^+ umbilical cord blood progenitor cells were provided by Anthony Nolan Research Institute, University College London. These cells were isolated from whole cord blood and were cryopreserved in liquid nitrogen for storage and transport. Cells were thawed, counted and then plated on EL08.1D2 plates prepared previously at a concentration of 1000 cells/well in human NK cells differentiation medium (Alpha-MEM plus 20% Human AB serum (Invitrogen), 50 μM β-Mercaptoethanol and 1% P/S along with 5 ng/ml human-IL-3 (Peprotech), 20 ng/ml human-IL-7 (Peprotech), 10 ng/ml human-Flt3-L (Peprotech), 20 ng/ml human-SCF (Peprotech) and 10 ng/ml human-IL-15 (Peprotech). Note that human-IL-3 is only needed for the first week of culture. Cells were left in the culture at 37° C., 5% CO2 for 14 or 16 days with a change of human NK differentiation medium at day 7 and 12.
Cells to be analysed by flow cytometry were passed through 40 μm cell strainers to remove clumps and washed with PBS buffer, centrifuged at 800 g for 2 minutes and resuspended in 100 μl fluorescent activated cell sorting (FACS) buffer (PBS plus 1% BSA) with appropriate fluorochrome conjugated antibodies at a dilution of 1 in 300. […]

## CCOC(=O)C1Cc2ccccc2CN1C(=O)c1ccc(SC)s1 (stereo not drawn) [SR8278, 1,2,3,4-Tetrahydro-2-[[5-(methylthio)-2-thienyl]carbonyl]-3-isoquinolinecarboxylic acid ethyl ester]
5 μM added at Day 4, harvested at Day 14
  change of percentage of NK cells versus 'No drug' control: almost tripled
5 μM added at Day 4, harvested at Day 14, 'No drug' control 5.53%
  percentage of NK cells: 13.7%
5 μM added at Day 4, harvested at Day 16
  change of percentage of NK cells versus 'No drug' control: doubled
5 μM added at Day 4, harvested at Day 16, 'No drug' control 21.8%
  percentage of NK cells: 44.3%
5 μM added on Day 2
  NK cell number: clear increase
Summary in Discussion
  human NK cell development from human HPCs cultured in vitro: significantly increase
